# According to ChEMBL document CHEMBL4813973, “Discovery of novel N-benzylbenzamide derivatives as tubulin polymerization inhibitors with potent antitumor activities” (Eur J Med Chem, 2021):
# Tests used:
# HCT-8 [1] = assay: Antiproliferative activity against human HCT-8 cells assessed as reduction in cell viability incubated for 72 hrs by MTT assay; format: functional, cell-based
# [2] = Resistant index, ratio of IC50 for ADR-resistant human Bel-7402 cells to IC50 for human Bel-7402 cells; format: functional
# HCT-8 [3] = assay: Antiproliferative activity against taxol-resistant human HCT-8 cells assessed as reduction in cell viability incubated for 72 hrs by MTT assay; format: functional, cell-based
# K562/VCR = assay: Antiproliferative activity against VCR resistant human K562/VCR cells assessed as reduction in cell viability incubated for 72 hrs by MTT assay; format: functional, cell-based
# K562 [4] = tested on: K562
# Description: (§1) Antiproliferative activity against human K562 cells assessed as reduction in cell viability incubated for 72 hrs by MTT assay
# A-431 = assay: Antiproliferative activity against human A-431 cells assessed as reduction in cell viability incubated for 72 hrs by MTT assay; format: functional, cell-based; conditions: A-431, 72 h
# MDA-MB-231 = assay: Antiproliferative activity against human MDA-MB-231 cells assessed as reduction in cell viability incubated for 72 hrs by MTT assay; format: functional, cell-based; conditions: MDA-MB-231, 72 h
# H22 [5] = assay: Antiproliferative activity against mouse H22 cells assessed as reduction in cell viability incubated for 72 hrs by MTT assay; format: functional, cell-based; conditions: H22, 72 h
# L02 = assay: Cytotoxicity against human L02 cells assessed as reduction in cell viability incubated for 72 hrs by MTT assay; format: cell-based; conditions: L02, 72 h
# HepG2 = assay: cells; conditions: Homo sapiens, HepG2, 72 h
# K562 [6] = assay: cells; conditions: Homo sapiens, K562, 72 h
# Description: as §1
# Bel-7402 [7] = assay: Antiproliferative activity against ADR-resistant human Bel-7402 cells assessed as reduction in cell viability incubated for 72 hrs by MTT assay; format: functional, cell-based; conditions: Homo sapiens, Bel-7402, 72 h; read-out: IC50
# [8] = Resistant index, ratio of IC50 for taxol-resistant human HCT-8 cells to IC50 for human HCT-8 cells; format: functional
# [9] = Resistant index, ratio of IC50 for VCR resistant human K562 cells to IC50 for human K562 cells; format: functional
# [10] = Aqueous solubility of the compound in phosphate buffer at pH 7.4 by HPLC-UV analysis; format: physicochemical
# [11] = Aqueous solubility of the compound in aqueous HCl at pH 2 by HPLC-UV analysis; format: physicochemical
# [12] = n-Octanol/water partition coefficient, logD of the compound incubated for 24 hrs at pH 7.4 by HPLC analysis; format: physicochemical
# [13] = Inhibition of pig brain tubulin polymerisation incubated for 30 mins and measured every 2 mins for 60 mins by spectrophotometric method; format: tissue-based, Sus scrofa
# Sus scrofa [14] = organism: Sus scrofa; assay: Inhibition of [3H]colchicine binding to biotinylated pig brain tubulin at 1 uM incubated for 2 hrs in presence of GTP by competitive scintillation proximity assay; format: tissue-based
# Sus scrofa [15] = organism: Sus scrofa; assay: Inhibition of [3H]colchicine binding to biotinylated pig brain tubulin at 5 uM incubated for 2 hrs in presence of GTP by competitive scintillation proximity assay; format: tissue-based
# H22 [16] = assay: Antitumor activity against […] xenografted in ICR mouse assessed as reduction of tumor weight at 20 mg/kg/day, iv for 21 days; format: functional; conditions: 504 h, time 21 day
# Bel-7402 [17] = assay: Antiproliferative activity against human Bel-7402 cells assessed as reduction in cell viability incubated for 72 hrs by MTT assay; format: functional, cell-based; conditions: Homo sapiens, Bel-7402, 72 h; read-out: IC50
# [18] = Metabolic stability in rat plasma assessed as parent compound remaining at 100 nM measured after 60 mins by HPLC analysis; format: ADME, cell-free; conditions: 1 h, 0.1 µM
# [19] = Metabolic stability in rat plasma assessed as parent compound remaining at 100 nM measured after 3 hrs by HPLC analysis; format: ADME, cell-free; conditions: read-out: Stabilty
# [20] = Homo sapiens, HCT-8, 72 h, read-out: IC50
smiles,measurement,setting,value
COc1cccc2c1C(=O)c1c(O)c3c(c(O)c1C2=O)C[C@@](O)(C(=O)CO)C[C@@H]3O[C@H]1C[C@H](N)[C@H](O)[C@H](C)O1.Cl [DOXORUBICIN HYDROCHLORIDE],IC50,HCT-8 [1]; hct-8,Not Active
same,Ratio IC50,[2],6.3
same,IC50,HCT-8 [3]; hct-8,Not Active
same,IC50,K562/VCR; k562/vcr,Not Active
same,IC50,K562 [4],Not Active
COc1ccc(CNC(=O)c2cc([N+](=O)[O-])ccc2N2CCCCC2)cc1O,IC50,A-431,12 nM
same,IC50,HCT-8 [1]; [20],11 nM
same,IC50,MDA-MB-231,29 nM
same,IC50,H22 [5],25 nM
same,IC50,L02,120 nM
same,IC50,HepG2,12 nM
same,IC50,K562 [6],19 nM
COc1ccc(CNC(=O)c2cc([N+](=O)[O-])ccc2N2CCSCC2)cc1O,IC50,A-431,60 nM
same,IC50,HCT-8 [1]; [20],60 nM
same,IC50,MDA-MB-231,62 nM
same,IC50,H22 [5],55 nM
same,IC50,L02,113 nM
same,IC50,HepG2,58 nM
same,IC50,K562 [6],49 nM
COc1ccc(/C=C\c2cc(OC)c(OC)c(OC)c2)cc1O [COMBRETASTATIN A4],IC50,H22 [5],15 nM
same,IC50,Bel-7402 [7],58 nM
same,Ratio IC50,[2],5.3
same,IC50,HCT-8 [3]; [20],87 nM
same,Ratio IC50,[8],7.9
same,Ratio IC50,[9],8.1
same,solubility,[10],1 µg/mL
same,solubility,[11],< 1 µg/mL
same,logD at 24 h,[12],2.68
same,IC50,[13],2640 nM
same,inhibition,Sus scrofa [14],80.2%
same,inhibition,Sus scrofa [15],90.3%
same,inhibition in vivo at 20 mg/kg/day,H22 [16],54.9%
same,IC50,HepG2,10 nM
COc1ccc(CNC(=O)c2ccccc2N2CCOCC2)cc1O,IC50,A-431,20 nM
same,IC50,HCT-8 [1]; [20],62 nM
same,IC50,MDA-MB-231,55 nM
same,IC50,H22 [5],49 nM
same,IC50,L02,105 nM
same,IC50,HepG2,48 nM
same,IC50,K562 [6],30 nM
COc1ccc(/C=C\c2cc(OC)c(OC)c(OC)c2)cc1OP(=O)(O)O [FOSBRETABULIN],inhibition in vivo at 20 mg/kg/day,H22 [16],62.7%
COc1ccc(CNC(=O)c2cc([N+](=O)[O-])ccc2N2CCCC2)cc1O,IC50,A-431,372 nM
COc1ccc(CNC(=O)c2cc([N+](=O)[O-])ccc2N(C)C)cc1O,IC50,A-431,> 1000 nM
COc1ccc(N2CCOCC2)c(C(=O)NCc2ccc(OC)c(O)c2)c1,IC50,A-431,28 nM
same,IC50,HCT-8 [1]; [20],27 nM
same,IC50,MDA-MB-231,29 nM
same,IC50,H22 [5],32 nM
same,IC50,L02,52 nM
same,IC50,HepG2,29 nM
same,IC50,K562 [6],61 nM
COc1ccc(CNC(=O)c2cc(-c3ccncc3)ccc2N2CCOCC2)cc1O,IC50,A-431,388 nM
COc1ccc(CNC(=O)c2cnccc2N2CCOCC2)cc1O,IC50,A-431,977 nM
COc1ccc(-c2ccc(N3CCOCC3)c(C(=O)NCc3ccc(OC)c(O)c3)c2)cc1,IC50,A-431,154 nM
COc1cc(CNC(=O)c2cc([N+](=O)[O-])ccc2N2CCOCC2)cc(OC)c1OC,IC50,A-431,> 1000 nM
COc1ccc(CNC(=O)c2cc(C(F)(F)F)ccc2N2CCCCC2)cc1O,IC50,A-431,97 nM
COc1ccc(C(C)NC(=O)c2cc([N+](=O)[O-])ccc2N2CCOCC2)cc1 (stereo not drawn),IC50,A-431,241 nM
COc1ccc(CNC(=O)c2cc([N+](=O)[O-])ccc2N2CCOCC2)cc1OC,IC50,A-431,> 1000 nM
COc1ccc(CNC(=O)c2cc(Br)ccc2N2CCOCC2)cc1O,IC50,A-431,30 nM
same,IC50,HCT-8 [1]; [20],30 nM
same,IC50,MDA-MB-231,29 nM
same,IC50,H22 [5],24 nM
same,IC50,L02,108 nM
same,IC50,HepG2,31 nM
same,IC50,K562 [6],24 nM
O=C(NCc1ccncc1)c1cc([N+](=O)[O-])ccc1N1CCOCC1,IC50,A-431,> 1000 nM
COc1ccc(CNC(=O)c2cc(NCc3ccco3)ccc2N2CCOCC2)cc1O,IC50,A-431,315 nM
COc1ccc(N2CCCCC2)c(C(=O)NCc2ccc(OC)c(O)c2)c1,IC50,A-431,57 nM
COc1ccc(CNC(=O)c2cc([N+](=O)[O-])ccc2N2CCOCC2)cc1F,IC50,A-431,93 nM
COc1ccc(CNC(=O)c2ccc([N+](=O)[O-])cc2N2CCOCC2)cc1O,IC50,A-431,224 nM
CSc1ccc(COC(=O)c2cc([N+](=O)[O-])ccc2N2CCOCC2)cc1,IC50,A-431,10 nM
same,IC50,HCT-8 [1]; [20],27 nM
same,IC50,MDA-MB-231,31 nM
same,IC50,H22 [5],25 nM
same,IC50,L02,44 nM
same,IC50,Bel-7402 [17],56 nM
same,IC50,Bel-7402 [7],268 nM
same,Ratio IC50,[2],4.8
same,IC50,HCT-8 [3]; [20],221 nM
same,Ratio IC50,[8],8.2
same,IC50,"K562/VCR; Homo sapiens, K562/VCR, 72 h, read-out: IC50",297 nM
same,Ratio IC50,[9],29.7
same,IC50,[13],2990 nM
same,inhibition,Sus scrofa [14],58%
same,inhibition,Sus scrofa [15],85.7%
same,Stabilty,[18],Stable
same,"remaining at 3 h, 0.1 µM",[19],72.6%
same,inhibition in vivo at 20 mg/kg/day,H22 [16],66.7%
same,IC50,HepG2,33 nM
same,IC50,K562 [6],10 nM
O=C(NCc1ccc(OC(F)(F)F)cc1)c1cc([N+](=O)[O-])ccc1N1CCOCC1,IC50,A-431,> 1000 nM
COc1ccc(CNC(=O)c2cc([N+](=O)[O-])ccc2N2CCOCC2)cn1,IC50,A-431,> 1000 nM
COc1ccc(CNc2ccc(N3CCOCC3)c(C(=O)NCc3ccc(OC)c(O)c3)c2)cc1,IC50,A-431,306 nM
COc1ccc(CNC(=O)c2cc(F)ccc2N2CCCCC2)cc1O,IC50,A-431,25 nM
same,IC50,HCT-8 [1]; [20],29 nM
same,IC50,MDA-MB-231,86 nM
same,IC50,H22 [5],32 nM
same,IC50,L02,88 nM
same,solubility,[10],< 1 µg/mL
same,solubility,[11],1110 µg/mL
same,logD at 24 h,[12],2.97
same,IC50,HepG2,26 nM
same,IC50,K562 [6],11 nM
COc1ccc(CNC(=O)c2cc(NCc3ccncc3)ccc2N2CCOCC2)cc1O,IC50,A-431,1080 nM
